Assay results: patent US5141627A, “Chelators whose affinity for calcium ion is increased by illumination” (The Regents of the University of California, priority 1989, dated 1992)
“Also recorded” adds a separate entry of the source.

Legend:
[1] = Absorbance spectra of free and Ca2+-bound chelators; assay type: physicochemical
Protocol: The titration was done at 22° C. with 10 mL of 100 mM KCl, 10 mM K-MOPS, 10 mM K2 H.HEEDTA, and 14 […] diazo-2 as starting materials, adjusting the pH to 7.24, recording the spectrum, and then discarding 1.0 mL of this solution and replacing with 1.0 mL of 100 mM KCl, 10 mM K.MOPS, 10 mM KCa.HEEDTA, 14 μM diazo-2, readjusting the pH to 7.24, and recording the spectra, which was then in 9 mM K2H.HEEDTA. Subsequent iterations to reach n mM KCa.HEEDTA, (10-n) mM HEEDTA, n=2-10, were done by discarding 10.0/(11-n) mL and replacing with equal volumes of the 10mM KCa.HEEDTA, 14 μM diazo-2 stock. After n=10 had been reached to give free Ca^2+ between 10^-5 and 10^-4 M, addition of 1 mM CaCl2 had no further effect on the spectrum. For clarity only six spectra are including in the figure, n=0, 2, 4, 6, 8, and 10. Each spectrum is labeled with the calculated free [Ca^2+ ] imposed by the HEEDTA buffer, assuming a log effective stability constant of 5.55 at pH 7.24.
The phenylacetate was produced by irradiating a 30 μM solution of diazo-2 in 100 mM KCl, 10 mM Tris.HCl, 10 mM K2 H.HEEDTA, pH 8.40, with Spectroline lamp at 365 nm to completion. The titration was then performed as in A but the pH was maintained at 8.40, at which the calculated log effective stability is constant for HEEDTA was 6.60.
Proton magnetic resonance spectra (^1 H NMR) were recorded on a Varian EM-390 90-MHz spectrometer in CDCl3 unless otherwise noted, and the chemical shifts are given in δ values relative to tetramethylsilane. Ultraviolet (UV) absorbance spectra were recorded on a Cary 210 or a Perkin-Elmer Lambda Array 3840 spectrophotometer at 20°±2° C. Melting points are in Centigrade and are uncorrected. Elemental analyses were performed by the Microanalytical Laboratory in the Department of Chemistry, University of California, Berkeley, Calif.

[2] = Yield of high affinity chelator / low-affinity side product after photolysis; assay type: physicochemical; settings: after photolysis
Protocol: Because of the direct conjugation of the dialkylamine moiety with the diazoketone group, diazo-2 has a large absorbance in the 350-400 nm range, which shifts 50 nm to shorter wavelengths on binding Ca^2+ (FIG. 1A). The dissociation constant for Ca^2+ is relatively high, at 2.2 μM, due to the electron withdrawing ability of the carbonyl group. Photolysis occurs at 365 nm with a quantum yield of 0.030. The peak at […] in zero Ca^2+ decreases to near baseline giving a spectrum similar to that of unsubstituted BAPTA, although a small peak remains at 355 nm (FIG. 1B). […] The reaction of diazo-2 with dilute aqueous acid should give the same product whose absorbance spectrum indeed matched that of the residual peak at 355 nm after photolysis in low Ca^2+. […] Once the extinction coefficient for the hydroxyacetyl derivative was known, the amount of the side product arising from photolysis is calculated to be about 10%.

REF52 fibroblast cell = assay: Intracellular free Ca2+ in REF52 fibroblasts on vasopressin stimulation and UV photolysis (fluo-3); assay type: cell-based, Fisher rat; settings: for effect of UV photolysis of intracellular chelator on [Ca2+]i (in words): 1 s UV after 50 nM [arg8]-vasopressin
Source text: The tetraacetoxymethyl esters of diazo-2 and diazo-3 were synthesized. The acetoxymethyl (AM) groups mask the negative charges on the carboxylate functions, so the AM ester of diazo-2 and diazo-3 can easily diffuse across the cell membrane, which is largely impermeable to ions. Once inside the cell, non-specific esterases in the cell hydrolytically cleave the AM esters and restore diazo-2 and diazo-3 to their tetracarboxylate forms, which being polyanions, are trapped within the cell. […] Prior to the start of data acquisition (t=0), the REF52 fibroblast cell was loaded with diazo-2 and fluo-3. […] Its fluorescence quantum yield is enhanced about 40-fold by Ca^2+ binding, which occurs with a Kd of 400 nM.
Prior to the start of data acquisition, the REF52 fibroblast cell was loaded with fluo-3 and diazo-2 by incubation for 30 min at 25° C. DME medium containing 1 μM diazo-2/AM and 10 μM fluo-3/AM. Acquisition of fluo-3 fluorescence intensity images was begun at time 0. The fluorescence intensity data was converted to intracellular Ca^2+ concentrations using a calibration procedure previously described. The event markers correspond to 1) stimulating the cell with 50 nM [arg^8 ]-vasopressin,and 2) flashing the cell for 1 s with UV light.
The experimental conditions were the same as in (A) except that the cell wa loaded with fluo-3 and diazo-3 (instead of diazo-2) by incubation for 90 min at 25° C. in DME medium containing 10 μm fluo-3/AM and […] diazo-3/AM. The event markers correspond to 1) stimulating the cell with 50 nM [arg^8 ]-vasopressin, and 2) flashing the cell for 1 s of UV light.
For preliminary biological tests, Fisher rat embryo fibroblast of the REF52 cell line were cultured as described by J. P. Y. Kao, et al. (1989).
For testing diazo-2, REF52 cells were incubated for 30 min at 25° C. in Dulbecco's modified Eagle's medium, buffered at pH 7.4 with 20 mM HEPES and containing 1 μM diazo-2/AM and 10 μM fluo-3/AM. For control experiments using diazo-3, the cells were incubated for 90 min at 25° C. in DMEM, buffered to pH 7.4 with 20 mM HEPES and containing 1 μM diazo-3/AM and […] fluo-3/AM. After loading, the cells were gently washed, transferred into Hanks' Balanced Salt Solution containing 0.2 mM sulfinpyrazone to inhibit non-specific organic anion transport (see Tsien, 1989), and mounted on a 25° C. microscope stage for experimentation.
Flash photolysis of trapped cellular diazo-2 and the concomitant monitoring of intracellular free Ca^2+ concentration with fluo-3, a fluorescent Ca^2+ indicator, were performed using methodology and instrumentation described in A. Minta, et al (1989) and J. P. Y. Kao, et al. (1989). Briefly, output form a Xe arc lamp was passed through a monochromator to yield the 490 nm light used to probe the fluo-3 trapped intracellularly. The fluo-3 fluorescence images of cells were recorded using a SIT TV camera. Images were stored on a high-resolution monochrome laser disc recorder (Panasonic TQ-2028) for delayed processing. Photolyses were performed by briefly moving a chopper mirror to send broad-band UV from an XBO 75 W xenon arc lamp and UG-2 filter into the microscope instead of 490 nm fluo-3 excitation. The microscope objective (Nikon UV-CF, 40X) was chosen for its high UV transmission and numerical aperture (1.3). […] The same computer was used to analyze the fluorescence images acquired during the experiment.

εmax, +Ca2+ ([1]; +Ca2+, at λmax) | λmax, +Ca2+ ([1]; +Ca2+, dominant peak at longest wavelength) | εmax, free ([1]; free (zero Ca2+), at λmax) | shift of absorbance to shorter wavelengths on binding Ca2+ ([1]; on binding Ca2+) | Photolysis yield (yield of high affinity Ca2+ chelator after photolysis) [2] | λmax, free ([1]; free (zero Ca2+), dominant peak at longest wavelength) | Compound | effect of UV photolysis of intracellular chelator on [Ca2+]i (in words) (REF52 fibroblast cell) | [Ca2+]i immediately after photolysis (REF52 fibroblast cell; after 1 s UV, cell stimulated with 50 nM [arg8]-vasopressin, loaded with diazo-2/AM)
20.2 10^-3, M^-1 cm^-1 | 320 nm | 22.2 10^-3, M^-1 cm^-1 | 50 nm | 90 |  | Cc1ccc(N(CC(=O)O)CC(=O)O)c(OCCOc2cc(C(=O)C=[N+]=[N-])ccc2N(CC(=O)O)CC(=O)O)c1 [diazo-2, 1-(2-bis(carboxymethyl)amino-5-methyl) phenoxy-2-(2-bis(carboxymethyl)amino-5-(diazoacetyl)phenoxy) ethane] | dropped precipitously | about 50 nM
 |  | 22.8 10^-3, M^-1 cm^-1 |  | 0 | 374 nm | COc1cc(C(=O)C=[N+]=[N-])ccc1N(CC(=O)O)CC(=O)O [diazo-3, 2-methoxy-4-(diazoacetyl)aniline-N, N-diacetic acid] | did not have any effect on the intracellular Ca^2+ concentration; also recorded: no detectable effect on Ca^2+ hemeostasis | 
